Assay results from patent US5783568A, “Methods for treating cancer and other cell proliferative diseases” (Sugen, Inc., priority 1994, dated 1998).
Entries after “also recorded” stand apart in the source; their conditions may differ.

Columns and labels:
Type in all cases: cell-based, human
FGFR2 (bek) [1] = experiment: Tyrosine phosphorylation of FGFR2 in wild-type CHO-K1 cells; conditions: 0.1 nM aFGF alone, 5 min at 37° C.
Description: Cells were lysed and the receptor was immunoprecipitated with anti-FGFR2 antibodies. Samples were then analyzed by SDS-PAGE, transferred to nitrocellulose membranes, and tyrosine-phosphorylated proteins were detected by immunoblotting with anti-phosphotyrosine antibodies.
Wild-type CHO cells (CHO-K1), as well as heparin sulfate-deficient mutant cells (CHO-pgsD-677) which were kindly provided by Prof. J. Esko (Esko, 1991), were cultured in F-12 medium containing 7.5% FBS, 1% Ampicillin/Streptomycin and 1% glutamine. Both CHO cell lines were co-transfected with the wild-type human FGFR2 (bek) DNA in the expression vector pMJ30 (Dionne et al., 1990) (40 μg/10 cm dish) and the pSVneo resistant gene (0.5 mg/10 cm dish), using the calcium phosphate method (Chen and Okayama, 1987). Geneticin (1 mg/ml) resistant clones were screened for expression of the receptor by immunoprecipitation and immunoblotting analysis using anti-FGFR2 antibodies.
Wild-type and mutant CHO cells were starved overnight in F-12 medium containing 0.5% FBS, and stimulated with either 0.1 nM aFGF, 50 nM heparin, or both, for 5 min at 37° C. Cells were lysed, immunoprecipitated with anti-FGFR2 antibodies and analyzed by immunoblotting with anti-phosphotyrosine (anti-PTyr) antibodies.

FGFR2 (bek) [2] = experiment: Cross-linking (BS^3) of FGF receptors in mutant CHO-pgsD-677 cells, receptor dimerization; conditions: 0.1 nM aFGF, with or without 50 nM heparin
Description: (§1) Parental (lanes 1-4) and mutant CHO cells (lanes 5-8) were incubated with either 50 nM heparin (lanes 2 and 6), 0.1 nM aFGF (lanes 3 and 7), or both (lanes 4 and 8), for 1 hour at 4° C. Cells were then treated with the covalent cross-linking agent BS^3 for […] at room temperature, solubilized and immunoprecipitated with anti-FGFR2 antibodies. The samples were analyzed by a gradient SDS gel (6-8%), transferred to nitrocellulose membranes and probed with anti-FGFR2 antibodies. M--FGFR monomers; D--FGFR dimers.
(§2) Cells grown in fibronectin-coated dishes were starved overnight in F-12 medium containing 0.5% FBS. Cells were then washed with ice-cold binding medium (F-12 medium containing 20 mM Hepes (pH 7.5) and 0.1% BSA), and incubated for 1 hour at 4° C. with either aFGF (0.1 nM), heparin (50 nM), or both. The cells were then washed twice with cold PBS and incubated with 1 mM BS^3 in PBS for 20 minutes at room temperature. The cross-linking reaction was quenched by the addition of 50 mM Tris-HCl and 100 mM glycine for 10 min at room temperature. […]
(§3) Full-length FGFR2 was transfected into two CHO cell lines; wild-type CHO-K1, and the mutant CHO-pgsD-677, which is defective in heparin sulfate expression at its cell-surface (Esko, 1991). […] Cells were then lysed, and immunoprecipitated FGFR2 was analyzed by SDS-PAGE followed by immunoblotting with anti-FGFR2 antibodies.

FGFR2 (bek) [3] = experiment: Cross-linking (BS^3) of FGF receptors in CHO-K1 cells, receptor dimerization; conditions: 0.1 nM aFGF, with or without 50 nM heparin
Description: as §1, §2, §3

## aFGF: aFGF was expressed in E. coli and purified by binding to a heparin-sepharose column
FGFR2 (bek) [1]
  FGFR2 autophosphorylation in CHO-K1 cells: stimulation of FGFR2 autophosphorylation
FGFR2 (bek) [2]
  receptor dimerization in mutant CHO-pgsD-677 cells: could only induce the dimerization of FGFR2 when exogenous heparin was added; also recorded: can only induce FGFR dimerization in the presence of heparin
FGFR2 (bek) [3]
  receptor dimerization in CHO-K1 cells: could induce receptor dimerization regardless of the presence of exogenous heparin
